From patent US9980965B2, “Treatment of autoimmune disease” (MingSight Pharmaceuticals, Inc., priority 2014, dated 2018)
Like-named read-outs stand apart in the source and are kept apart here. Marks after values point to notes of the source that are not given here.

Columns and labels:
Human PKC betaII = Human PKC betaII (Homo sapiens, UniProt P05771); assay: In vitro PKC inhibition, PKC betaII; type: biochemical
Human PKC betaI = Human PKC betaI (Homo sapiens, UniProt P05771); assay: In vitro PKC inhibition, PKC betaI; type: biochemical
Sequence of Human PKC betaI (P05771 whole entry): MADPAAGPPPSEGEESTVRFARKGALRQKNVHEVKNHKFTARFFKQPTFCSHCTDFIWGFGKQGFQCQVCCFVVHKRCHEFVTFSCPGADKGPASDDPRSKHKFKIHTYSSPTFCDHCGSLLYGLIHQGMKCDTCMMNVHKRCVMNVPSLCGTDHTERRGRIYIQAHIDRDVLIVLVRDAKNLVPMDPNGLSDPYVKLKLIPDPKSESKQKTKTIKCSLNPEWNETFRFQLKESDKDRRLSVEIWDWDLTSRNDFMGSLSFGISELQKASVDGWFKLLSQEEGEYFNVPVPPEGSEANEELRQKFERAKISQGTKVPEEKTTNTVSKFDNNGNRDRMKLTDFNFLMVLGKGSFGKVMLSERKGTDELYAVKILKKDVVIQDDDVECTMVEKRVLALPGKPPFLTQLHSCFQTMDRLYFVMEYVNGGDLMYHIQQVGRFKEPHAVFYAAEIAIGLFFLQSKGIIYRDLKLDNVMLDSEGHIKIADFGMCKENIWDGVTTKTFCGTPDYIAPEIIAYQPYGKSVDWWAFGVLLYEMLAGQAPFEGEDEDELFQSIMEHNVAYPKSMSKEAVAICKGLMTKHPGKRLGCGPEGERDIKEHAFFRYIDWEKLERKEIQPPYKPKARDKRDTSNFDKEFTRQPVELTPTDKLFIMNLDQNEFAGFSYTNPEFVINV

Human PKC gamma = Human PKC gamma (Homo sapiens, UniProt P05129); assay: In vitro PKC inhibition, PKC gamma; type: biochemical
Source text: (§1) The methods for these determinations have been described (Grant, et al. 2010, Eur J Pharmacol. 627:16-25).

Human PKC mu = biological target: T1, Human PKC mu (Homo sapiens, UniProt Q15139); assay: In vitro PKC inhibition, PKC mu; type: biochemical
T1 sequence (Q15139 1-912): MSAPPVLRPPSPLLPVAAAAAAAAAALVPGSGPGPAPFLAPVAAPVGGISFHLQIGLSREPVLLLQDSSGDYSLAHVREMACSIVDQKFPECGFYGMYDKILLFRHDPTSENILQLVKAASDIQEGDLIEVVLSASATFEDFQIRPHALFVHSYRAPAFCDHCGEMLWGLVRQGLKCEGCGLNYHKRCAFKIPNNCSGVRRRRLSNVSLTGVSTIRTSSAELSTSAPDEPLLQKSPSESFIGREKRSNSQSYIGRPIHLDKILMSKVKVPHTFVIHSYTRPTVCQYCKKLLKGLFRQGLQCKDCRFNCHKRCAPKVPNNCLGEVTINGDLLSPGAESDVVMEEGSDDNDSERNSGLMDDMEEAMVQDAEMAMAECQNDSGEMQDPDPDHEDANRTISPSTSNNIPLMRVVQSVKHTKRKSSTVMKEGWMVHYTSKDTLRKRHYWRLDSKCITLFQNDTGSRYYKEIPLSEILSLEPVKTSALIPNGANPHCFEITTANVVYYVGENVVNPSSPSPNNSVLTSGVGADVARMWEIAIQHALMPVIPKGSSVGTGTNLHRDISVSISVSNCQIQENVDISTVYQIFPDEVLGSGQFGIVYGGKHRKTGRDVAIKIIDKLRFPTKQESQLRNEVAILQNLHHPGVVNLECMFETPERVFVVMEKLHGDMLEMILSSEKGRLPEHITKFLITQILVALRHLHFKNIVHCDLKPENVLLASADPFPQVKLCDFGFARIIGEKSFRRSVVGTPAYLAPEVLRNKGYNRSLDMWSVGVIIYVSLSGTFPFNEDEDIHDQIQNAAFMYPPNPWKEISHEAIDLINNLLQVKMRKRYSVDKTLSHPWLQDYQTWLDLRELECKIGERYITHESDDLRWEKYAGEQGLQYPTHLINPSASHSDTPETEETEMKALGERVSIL
Source text: as §1

Human PKC delta = Human PKC delta (Homo sapiens, UniProt Q05655); assay: In vitro PKC inhibition, PKC delta; type: biochemical
Sequence of Human PKC delta (Q05655 whole entry): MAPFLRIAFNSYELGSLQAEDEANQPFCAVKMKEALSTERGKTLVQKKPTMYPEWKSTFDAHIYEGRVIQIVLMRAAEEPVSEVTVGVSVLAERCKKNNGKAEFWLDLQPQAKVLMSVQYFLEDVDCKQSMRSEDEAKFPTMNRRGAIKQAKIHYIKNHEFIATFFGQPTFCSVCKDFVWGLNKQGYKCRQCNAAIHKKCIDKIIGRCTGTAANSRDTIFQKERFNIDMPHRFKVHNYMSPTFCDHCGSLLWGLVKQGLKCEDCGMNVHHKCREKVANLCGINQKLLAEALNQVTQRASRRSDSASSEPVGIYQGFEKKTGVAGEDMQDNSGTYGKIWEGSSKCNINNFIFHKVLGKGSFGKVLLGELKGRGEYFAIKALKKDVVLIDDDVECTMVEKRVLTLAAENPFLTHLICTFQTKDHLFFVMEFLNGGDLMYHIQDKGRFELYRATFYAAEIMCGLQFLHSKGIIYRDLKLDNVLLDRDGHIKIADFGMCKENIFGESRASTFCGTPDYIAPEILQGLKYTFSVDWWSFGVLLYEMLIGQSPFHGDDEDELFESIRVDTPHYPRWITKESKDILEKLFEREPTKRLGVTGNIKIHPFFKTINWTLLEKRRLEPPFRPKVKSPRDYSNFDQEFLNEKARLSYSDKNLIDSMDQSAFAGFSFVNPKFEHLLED
Source text: as §1

Human PKC iota = biological target: T2, Human PKC iota (Homo sapiens, UniProt P41743); assay: In vitro PKC inhibition, PKC iota; type: biochemical
T2 sequence (P41743 1-596): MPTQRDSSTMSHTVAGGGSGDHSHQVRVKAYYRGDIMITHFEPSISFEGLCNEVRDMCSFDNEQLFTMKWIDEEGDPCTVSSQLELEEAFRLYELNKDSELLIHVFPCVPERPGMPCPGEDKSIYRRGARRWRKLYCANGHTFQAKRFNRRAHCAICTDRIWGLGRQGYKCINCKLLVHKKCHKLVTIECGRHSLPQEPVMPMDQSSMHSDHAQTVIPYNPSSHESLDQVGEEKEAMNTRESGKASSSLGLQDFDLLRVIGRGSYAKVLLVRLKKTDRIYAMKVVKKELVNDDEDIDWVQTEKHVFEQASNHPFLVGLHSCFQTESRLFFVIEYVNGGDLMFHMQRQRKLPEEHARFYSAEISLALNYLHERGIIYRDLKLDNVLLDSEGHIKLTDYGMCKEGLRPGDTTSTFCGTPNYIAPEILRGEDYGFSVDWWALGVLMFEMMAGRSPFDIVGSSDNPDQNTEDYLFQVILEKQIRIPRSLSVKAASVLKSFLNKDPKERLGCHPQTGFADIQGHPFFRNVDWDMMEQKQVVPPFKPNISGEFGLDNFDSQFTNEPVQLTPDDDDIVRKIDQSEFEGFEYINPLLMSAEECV
Source text: as §1

pSHP2 (PKCβ cell assay) = assay: pSHP2 (PKCβ cell assay); type: cell-based
Source text: as §1

[1] = Separate pharmacokinetics experiments in mice; type: in vivo; settings: 60 mg/kg dose, oral
[2] = tested on: EAE induced by MBP69-88/CFA immunization and pertussis toxin injection; type: in vivo, Lewis rats; settings: for Median day of onset (all rats) / Mean day of onset +/− SEM (sick rats) / EAE incidence (%): p.o.; for Median day of onset (all rats): vehicle 9.0; for Mean day of onset +/− SEM (sick rats): vehicle 9.3 +/− 0.6; for EAE incidence (%): vehicle 100.0%
[3] = 15 and 30 mg/kg BID, compared to the vehicle control group

Sequence of Human PKC betaII (P05771 1-673 isoform P05771-2): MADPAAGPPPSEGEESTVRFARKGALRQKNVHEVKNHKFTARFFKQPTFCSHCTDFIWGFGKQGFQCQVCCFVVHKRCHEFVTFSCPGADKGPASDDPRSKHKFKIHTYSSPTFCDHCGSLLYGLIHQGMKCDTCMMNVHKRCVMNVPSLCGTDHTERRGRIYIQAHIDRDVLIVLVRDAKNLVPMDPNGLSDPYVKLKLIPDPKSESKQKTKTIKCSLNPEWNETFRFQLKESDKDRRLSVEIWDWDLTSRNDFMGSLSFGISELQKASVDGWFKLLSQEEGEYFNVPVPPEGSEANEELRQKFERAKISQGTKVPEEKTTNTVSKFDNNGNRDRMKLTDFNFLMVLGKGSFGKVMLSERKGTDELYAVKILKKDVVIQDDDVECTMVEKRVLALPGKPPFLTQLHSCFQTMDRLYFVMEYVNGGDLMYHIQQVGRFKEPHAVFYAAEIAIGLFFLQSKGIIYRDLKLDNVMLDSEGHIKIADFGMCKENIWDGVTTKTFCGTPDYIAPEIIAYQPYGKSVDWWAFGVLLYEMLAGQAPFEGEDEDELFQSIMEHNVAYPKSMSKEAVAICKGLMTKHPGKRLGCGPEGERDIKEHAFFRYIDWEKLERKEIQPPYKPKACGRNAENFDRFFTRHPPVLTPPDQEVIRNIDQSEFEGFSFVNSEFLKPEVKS

`Cc1ncc(F)c(Nc2n[nH]c3c2CN(C(=O)N2C[C@@H](C)N(CC4CCOCC4)C[C@@H]2C)C3(C)C)n1` [Compound A, 5-{[(2S,5R)-2,5-Dimethyl-4-(tetrahydro-2H-pyran-4-ylmethyl)piperazin-1-yl]carbonyl}-N-(5-fluoro-2-methylpyrimidin-4-yl)-6,6-dimethyl-1,4,5,6-tetrahydropyrrolo[3,4-c]pyrazol-3-amine] showed an IC50 (Human PKC betaII) of 7.6 nM, a Ki (Human PKC betaII; recombinant PKC beta (betaII in Table 1)) of 5.3 nM and an IC50 (Human PKC betaI) of 8.1 nM. It also gave an IC50 (Human PKC gamma) of 57.5 nM, an IC50 (Human PKC mu) of 314 nM and an IC50 (Human PKC delta) greater than 1000 nM. For the same compound, the “inhibition of PKC delta (in words)” value (Human PKC delta) was “does not significantly inhibit”, the IC50 (Human PKC iota) was greater than 1000 nM and the IC50 (pSHP2 (PKCβ cell assay)) was 9.8 nM. The exposure in mice [1] was “unexpectedly low and insufficient exposure”, the “Median day of onset (all rats)” value ([2]; 7.5 mg/kg, BID) was 9.0 days and the “Mean day of onset +/− SEM (sick rats)” value ([2]; 7.5 mg/kg, BID) was 9.0 ± 0.5 days. The “EAE incidence (%)” value ([2]; 7.5 mg/kg, BID) was 100.0%, the “Median day of onset (all rats)” value ([2]; 15 mg/kg, BID) was 8.0 days and the “Mean day of onset +/− SEM (sick rats)” value ([2]; 15 mg/kg, BID) was 8.5 ± 0.4 days. The “EAE incidence (%)” value ([2]; 15 mg/kg, BID) was 100.0%, the “Mean day of onset +/− SEM (sick rats)” value ([2]; 30 mg/kg, BID) was 9.0 ± 0.9 days and the “EAE incidence (%)” value ([2]; 30 mg/kg, BID, p < 0.05 vs. vehicle) was 50.0%*. The “clinical score (EAE)” value ([2]; 7.5, 15 and 30 mg/kg BID) was “dose-dependent decrease”, the “end severity (FIG. 5)” value [2, 3] was “significantly reduced” and the “maximum EAE severity (FIG. 5)” value [2, 3] was “significantly reduced”. The “EAE incidence (in words)” value ([2]; highest dose (30 mg/kg BID)) was “significantly reduced” and the “efficacy compared with fingolimod” value ([2]; highest dose employed (30 mg/kg BID) vs. FTY720 0.5 mg/kg QD) was “appeared superior to fingolimod”.

For `CCCCCCCCc1ccc(CCC(N)(CO)CO)cc1` [FTY720, fingolimod, reference compound], the “Median day of onset (all rats)” value ([2]; 0.5 mg/kg, QD) was 8.0 days and the “Mean day of onset +/− SEM (sick rats)” value ([2]; 0.5 mg/kg, QD) was 8.0 ± 0.3 days.
